Data reported in patent publication US8211945B2, “Carba-sugar amine derivative and glycolipid metabolic disorder treating agent containing the same as active ingredient” (Seikagaku Corporation, priority 2001, dated 2012).
Numbering of substitutions follows the chain as printed. Several values for one entry are separate records, joined by “and”; a condition that tells them apart may be missing. Equal values may be shown once.

Key:
[1] = target: T1, human mutant β-galactosidase R201C (Homo sapiens, UniProt P16278, R201C); experiment: Tissue migration and recovery of β-galactosidase activity, 1 week oral administration to recombinant mice; assay type: in vivo; settings: for β-galactosidase activity, Test group: mice, 1 mM in drinking water, 1 week
T1 construct: from tissue
T1 sequence (P16278 29-677 R201C): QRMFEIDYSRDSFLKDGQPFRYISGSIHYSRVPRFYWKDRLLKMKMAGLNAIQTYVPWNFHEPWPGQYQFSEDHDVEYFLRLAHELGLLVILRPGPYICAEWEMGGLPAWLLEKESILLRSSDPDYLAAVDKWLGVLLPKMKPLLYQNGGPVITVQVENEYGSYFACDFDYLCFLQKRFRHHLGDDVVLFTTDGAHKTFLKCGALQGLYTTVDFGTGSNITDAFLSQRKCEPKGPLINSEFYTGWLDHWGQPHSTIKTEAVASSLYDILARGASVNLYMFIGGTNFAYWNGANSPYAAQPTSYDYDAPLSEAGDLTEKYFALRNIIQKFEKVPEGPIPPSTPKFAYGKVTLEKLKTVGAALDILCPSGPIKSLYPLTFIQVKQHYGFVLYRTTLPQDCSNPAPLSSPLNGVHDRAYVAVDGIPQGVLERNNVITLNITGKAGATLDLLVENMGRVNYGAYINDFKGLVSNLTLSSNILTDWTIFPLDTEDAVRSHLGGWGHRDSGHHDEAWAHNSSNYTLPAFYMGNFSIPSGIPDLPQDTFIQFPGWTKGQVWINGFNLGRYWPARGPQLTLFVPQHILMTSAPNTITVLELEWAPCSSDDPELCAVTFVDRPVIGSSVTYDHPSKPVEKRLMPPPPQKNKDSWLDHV
Procedure: One week thereafter, the mice were sacrificed to excise the cerebrum, the cerebellum, the heart, the lungs, the liver, the spleen, the kidney, a muscle (femoral muscle) and plasma. Also, tail tissues were used for the purpose of verifying changes in the β-galactosidase activity in the same individual before and after the administration. Each organ was crushed under ice-cooling using a homogenizer, and then the suspension of crushed cells was centrifuged at 8,000×g for 30 minutes. Thereafter, the supernatant fraction was recovered and used as an enzyme solution. The amount of protein in this enzyme solution was measured by the Bradford method, and the β-galactosidase activity was measured. With regard to the measurement of β-galactosidase activity, the enzyme activity during 30 minutes was measured at 37° C. using 4-methylumbelliferyl-β-D-galactopyranoside as the fluorogenic substrate. […] Three animals were used in each group to calculate the mean value.

[2] = target: T2, human normal β-galactosidase (GP8) (Homo sapiens, UniProt P16278); experiment: β-Galactosidase activity in model cells (knockout mouse fibroblasts with transferred gene) cultured 4 days with substance; assay type: cell-based; parameters: made in house; host or cells: SV40-immortalized β-galactosidase knockout mouse skin fibroblasts
T2 sequence (P16278 29-677): T1 sequence (P16278 29-677 R201C) with C173R
Text: Cultured skin fibroblasts of a β-galactosidase-deficient knockout mouse was immortalized by introducing an SV40 viral gene, and enzyme genes integrated into pSV2neo and an expression vector were also introduced simultaneously, thereby establishing a model cell (Brain Dev., 23(5), 284-287, 2001). The genes used are human normal (GP8) and mutant β-galactosidase gene Y316C, G123R (infantile GM1-gangliosidosis), R201C (juvenile GM1-gangliosidosis), 151T, T82M, R201H, R263S, R457Q (adult GM1-gangliosidosis), W273L, Y83H, R482H and R482C (Morquio-B disease) (Hum. Genet., 93(2), 109-114, 1994).
As a control substance, 0.5 mM N-(n-butyl)-deoxygalactonojirimycin (NB-DGJ: The Journal of Biological Chemistry, 269, 27108-27114 (1994)) was used, and the substance 18 of the present invention was used in an amount of 0.2 μM.
Specifically, after culturing the model cell for 4 days using a cell culture medium (10% FCS DMEM) containing the substance 18 of the present invention, the resulting cells were recovered and diluted such that the amount of protein in the suspension became a predetermined level, and then enzyme activity in the diluted suspension was measured. Using 4-methylumbelliferyl-β-D-galactopyranoside as the fluorescent substrate, the enzyme activity during 30 minutes was measured at 37° C.

Structure (SMILES): CCCCCCCCN[C@@H]1C=C(CO)[C@H](O)C(O)[C@@H]1O (stereo partly drawn) [Substance 18, N-octyl-5a-carba-α-L-arabino-hexo-5(5a)-enopyranosylamine]
- β-galactosidase activity, Test group ([1]; Cerebellum): 55.4 nmol/mg protein/30 minutes
- Improving degree ([1]; Cerebellum, test group vs control): 5.3 Times
- β-galactosidase activity, Test group ([1]; Cerebrum): 50.5 nmol/mg protein/30 minutes
- Improving degree ([1]; Cerebrum, test group vs control): 6.0 Times
- β-galactosidase activity, Test group ([1]; Heart): 241.2 nmol/mg protein/30 minutes
- Improving degree ([1]; Heart, test group vs control): 14.2 Times
- β-galactosidase activity, Test group ([1]; Kidney): 171.1 nmol/mg protein/30 minutes
- Improving degree ([1]; Kidney, test group vs control): 6.2 Times
- β-galactosidase activity, Test group ([1]; Liver): 186.8 nmol/mg protein/30 minutes
- Improving degree ([1]; Liver, test group vs control): 4.7 Times
- β-galactosidase activity, Test group ([1]; Lungs): 98.9 nmol/mg protein/30 minutes
- Improving degree ([1]; Lungs, test group vs control): 12.4 Times
- β-galactosidase activity, Test group ([1]; Muscle (femoral muscle)): 91.4 nmol/mg protein/30 minutes
- Improving degree ([1]; Muscle (femoral muscle), test group vs control): 11.3 Times
- β-galactosidase activity, Test group ([1]; Plasma): 23.0 nmol/mg protein/30 minutes
- Improving degree ([1]; Plasma, test group vs control): 7.9 Times
- β-galactosidase activity, Test group ([1]; Spleen): 266.2 nmol/mg protein/30 minutes
- Improving degree ([1]; Spleen, test group vs control): 17.1 Times
- β-galactosidase activity, After feeding ([1]; Tail (administered group), after 1 week feeding): 518.8 nmol/mg protein/30 minutes
- Improving degree ([1]; Tail (administered group), after vs before feeding, same individual): ~8 Times and 6.7 Times
- β-galactosidase activity improved in average in the test group ([1]; average of organs, test group vs control): 9.1 times
- level of the activity obtained in the cerebrum and the cerebellum ([1]; cerebrum and cerebellum, test group): about 50 nmol/mg protein/30 minutes
- Relative ratio (×100%) ([2]; GP8, substance 18 vs control): 1.05 ×100%
- enzyme activity ([2]; transferred gene GP8, 0.2 μM, 4 days): 78.87

Structure (SMILES): CCCCN1C[C@H](O)[C@@H](O)[C@@H](O)[C@H]1CO [Control, N-(n-butyl)-deoxygalactonojirimycin, reference compound]
- enzyme activity, Control ([2]; transferred gene GP8, control substance 0.5 mM NB-DGJ): 74.94
